From ChEMBL document CHEMBL3868595, “Plazomicin is effective in a non-human primate pneumonic plague model” (Bioorg Med Chem, 2016)

How the values were obtained:
African green monkey [1] = assay: Toxicity in African green monkey B6408 model infected with Yersinia pestis Colorado 92 assessed as serum gamma glutamyl-transferase level at 25 mg/kg, iv administered within 6 hrs post onset of sustained fever as 30 mins infusion for 10 days (reference value: 53 IU/L); format: organism-based; details: chlorocebus sabaeus, in vivo
Yersinia pestis [2] = assay: (§1) Antibacterial activity against Yersinia pestis Colorado 92 infected in African green monkey B6861 model assessed as bacterial burden in heart at 6.25 mg/kg, iv administered within 6 hrs post onset of sustained fever as 30 mins infusion for 5 days (reference value: 2.6 10^7CFU/g); format: functional, CO92
Yersinia pestis [3] = assay: Antibacterial activity against Yersinia pestis Colorado 92 infected in African green monkey B6872 model assessed as bacterial burden in lung at 25 mg/kg, iv administered within 6 hrs post onset of sustained fever as 30 mins infusion for 5 days (reference value: 7.7 10^8CFU/g); format: functional, organism-based; details: CO92
[4] = Toxicity in African green monkey 7972 model infected with Yersinia pestis Colorado 92 assessed as total white blood cell count at 25 mg/kg, iv administered within 6 hrs post onset of sustained fever as 30 mins infusion for 10 days (reference value: 6.9 10^3/microL); format: organism-based; details: chlorocebus aethiops, in vivo
Yersinia pestis [5] = assay: as §1, with “tracheobronchial lymph nodes” for “heart”, “7.7 10^9CFU/g)” for “2.6 10^7CFU/g)”; format: functional, CO92, Lymph node
African green monkey [6] = assay: Toxicity in African green monkey 7643 model infected with Yersinia pestis Colorado 92 assessed as serum gamma glutamyl-transferase level at 25 mg/kg, iv administered within 6 hrs post onset of sustained fever as 30 mins infusion for 10 days (reference value: 44 IU/L); format: organism-based; details: chlorocebus sabaeus, in vivo
African green monkey [7] = assay: Toxicity in African green monkey B6408 model infected with Yersinia pestis Colorado 92 assessed as blood urea nitrogen level at 25 mg/kg, iv administered within 6 hrs post onset of sustained fever as 30 mins infusion for 10 days (reference value: 22 mg/dl); format: organism-based; details: chlorocebus sabaeus, in vivo
African green monkey [8] = assay: Toxicity in African green monkey B6127 model infected with Yersinia pestis Colorado 92 assessed as elevation of blood urea nitrogen at 25 mg/kg, iv administered within 6 hrs post onset of sustained fever as 30 mins infusion for 10 days; format: organism-based; details: chlorocebus sabaeus, in vivo
Yersinia pestis [9] = assay: Antibacterial activity against Yersinia pestis Colorado 92 infected in African green monkey B6469 model assessed as bacterial burden in tracheobronchial lymph nodes at 25 mg/kg, iv administered within 6 hrs post onset of sustained fever as 30 mins infusion for 5 days (reference value: 7.7 10^9CFU/g); format: functional, organism-based; details: CO92, Lymph node
African green monkey [10] = assay: Toxicity in African green monkey assessed as effect on serum creatinine level at 25 mg/kg administered as iv infusion twice daily for 7 consecutive days measured on day 1 by LC-MS/MS analysis; format: organism-based; details: chlorocebus sabaeus, in vivo
Yersinia pestis [11] = assay: Antibacterial activity against Yersinia pestis Colorado 92 infected in African green monkey B6672 model assessed as bacterial burden in heart at 12.5 mg/kg, iv administered within 6 hrs post onset of sustained fever as 30 mins infusion for 5 days (reference value: 2.6 10^7CFU/g); format: functional, CO92
Yersinia pestis [12] = assay: Antibacterial activity against Yersinia pestis Colorado 92 infected in African green monkey B6436 model assessed as bacterial burden in liver at 25 mg/kg, iv administered within 6 hrs post onset of sustained fever as 30 mins infusion for 5 days (reference value: 5.2 10^8CFU/g); format: functional, organism-based; details: CO92
[13] = Elimination half life in African green monkey blood at 35 mg/kg administered as iv infusion twice daily for 7 consecutive days measured on day 1 by LC-MS/MS analysis; format: ADME, organism-based; details: chlorocebus aethiops, read-out: beta t1/2 (converted)
African green monkey [14] = assay: Toxicity in African green monkey 8067 model infected with Yersinia pestis Colorado 92 assessed as serum gamma glutamyl-transferase level at 25 mg/kg, iv administered within 6 hrs post onset of sustained fever as 30 mins infusion for 10 days (reference value: 40 IU/L); format: organism-based; details: chlorocebus sabaeus, in vivo
Yersinia pestis [15] = assay: Antibacterial activity against Yersinia pestis Colorado 92 infected in African green monkey B6783 model assessed as bacterial burden in liver at 12.5 mg/kg, iv administered within 6 hrs post onset of sustained fever as 30 mins infusion for 5 days (reference value: 5.2 10^8CFU/g); format: functional, CO92
Yersinia pestis [16] = assay: Antibacterial activity against Yersinia pestis Colorado 92 infected in African green monkey B6872 model assessed as bacterial burden in liver at 25 mg/kg, iv administered within 6 hrs post onset of sustained fever as 30 mins infusion for 5 days (reference value: 5.2 10^8CFU/g); format: functional, organism-based; details: CO92
Yersinia pestis [17] = assay: Antibacterial activity against Yersinia pestis Colorado 92 infected in African green monkey B6672 model assessed as bacterial burden in lung at 12.5 mg/kg, iv administered within 6 hrs post onset of sustained fever as 30 mins infusion for 5 days (reference value: 7.7 10^8CFU/g); format: functional, CO92
Yersinia pestis [18] = assay: Antibacterial activity against Yersinia pestis Colorado 92 infected in African green monkey B6873 model assessed as bacterial burden in brain at 12.5 mg/kg, iv administered within 6 hrs post onset of sustained fever as 30 mins infusion for 5 days (reference value: 1.9 10^6CFU/g); format: functional, CO92
Yersinia pestis [19] = assay: Antibacterial activity against Yersinia pestis Colorado 92 infected in African green monkey B6106 model assessed as bacterial burden in liver at 25 mg/kg, iv administered within 6 hrs post onset of sustained fever as 30 mins infusion for 5 days (reference value: 5.2 10^8CFU/g); format: functional, CO92
Yersinia pestis [20] = assay: Antibacterial activity against Yersinia pestis Colorado 92 infected in African green monkey B6960 model assessed as bacterial burden in heart at 6.25 mg/kg, iv administered within 6 hrs post onset of sustained fever as 30 mins infusion for 5 days (reference value: 2.6 10^7CFU/g); format: functional, CO92
African green monkey [21] = assay: Toxicity in African green monkey assessed as effect on serum creatinine level at 25 mg/kg administered as iv infusion twice daily for 7 consecutive days measured on day 7 by LC-MS/MS analysis; format: organism-based; details: chlorocebus sabaeus, in vivo
African green monkey [22] = assay: Toxicity in African green monkey B6408 model infected with Yersinia pestis Colorado 92 assessed as serum lactate dehydrogenase level at 25 mg/kg, iv administered within 6 hrs post onset of sustained fever as 30 mins infusion for 10 days (reference value: 249 IU/L); format: organism-based; details: chlorocebus sabaeus, in vivo
Yersinia pestis [23] = assay: Antibacterial activity against Yersinia pestis Colorado 92 infected in African green monkey B6415 model assessed as bacterial burden in liver at 25 mg/kg, iv administered within 6 hrs post onset of sustained fever as 30 mins infusion for 5 days (reference value: 5.2 10^8CFU/g); format: functional, CO92
African green monkey [24] = assay: Toxicity in African green monkey 7337 model infected with Yersinia pestis Colorado 92 assessed as blood urea nitrogen level at 25 mg/kg, iv administered within 6 hrs post onset of sustained fever as 30 mins infusion for 10 days (reference value: 15 mg/dl); format: organism-based; details: chlorocebus sabaeus, in vivo
[25] = Cmax in African green monkey blood at 35 mg/kg administered as iv infusion twice daily for 7 consecutive days measured on day 7 by LC-MS/MS analysis; format: ADME, organism-based; set-up: dose 35 mg/kg, route intravenous; details: chlorocebus aethiops
Yersinia pestis [26] = assay: Antibacterial activity against Yersinia pestis Colorado 92 infected in African green monkey B6672 model assessed as bacterial burden in liver at 12.5 mg/kg, iv administered within 6 hrs post onset of sustained fever as 30 mins infusion for 5 days (reference value: 5.2 10^8CFU/g); format: functional, CO92

CN[C@@H]1[C@@H](O)[C@@H](O[C@@H]2[C@@H](O)[C@H](O[C@H]3OC(CNCCO)=CC[C@H]3N)[C@@H](N)C[C@H]2NC(=O)[C@@H](O)CCN)OC[C@]1(C)O [PLAZOMICIN]
Activity (African green monkey [1]): 56 IU/L
Activity (Yersinia pestis [2]): 16 CFU/g
Activity (Yersinia pestis [3]): Below limit of detection
Activity [4]: 7.6 ×10³ /uL
Activity (Yersinia pestis [5]): 1.2 ×10⁸ CFU/g
Activity (African green monkey [6]): 35 IU/L
Activity (African green monkey [7]): 20 mg/dL
Activity (African green monkey [8]): Toxic
Activity (Yersinia pestis [9]): Below limit of detection
Activity (African green monkey [10]): 0.55 mg/dL
Activity (Yersinia pestis [11]): 29 CFU/g
Activity (Yersinia pestis [12]): Below limit of detection
half-life [13]: 102 min
Activity (African green monkey [14]): 26 IU/L
Activity (Yersinia pestis [15]): 8.4 ×10⁶ CFU/g
Activity (Yersinia pestis [16]): Below limit of detection
Activity (Yersinia pestis [17]): 9.2 ×10⁹ CFU/g
Activity (Yersinia pestis [18]): 44 CFU/g
Activity (Yersinia pestis [19]): 95 CFU/g
Activity (Yersinia pestis [20]): 1.2 ×10⁶ CFU/g
Activity (African green monkey [21]): 0.55 mg/dL
Activity (African green monkey [22]): 304 IU/L
Activity (Yersinia pestis [23]): 2 ×10⁶ CFU/g
Activity (African green monkey [24]): 18 mg/dL
Cmax [25]: 185 µg/mL
Activity (Yersinia pestis [26]): 76 CFU/g
